Source: patent US10005884B2, “Methods for purifying 2-aryl-3,3-bis(hydroxyaryl)phthalimidines” (SABIC GLOBAL TECHNOLOGIES B.V., priority 2014, dated 2018)

Assay: Solubility of PPPBP in methanol (amount of methanol required to bring PPPBP into solution)
Format: physicochemical
Excerpt: Studies were undertaken to determine the amount of methanol required to bring PPPBP into solution at room temperature and at elevated temperature.

Volumes of methanol (at reflux temp): 17 volumes | Volumes of methanol (at room temp): 20 volumes
Structure (SMILES): O=C1c2ccccc2C(c2ccc(O)cc2)(c2ccc(O)cc2)N1c1ccccc1 [Pure PPPBP, 2-phenyl-3,3-bis(4-hydroxyphenyl)phthalimidine]
